Results as given in patent publication US20160074420A1, “ORAL B12 THERAPY” (Emisphere Technologies, Inc., priority 2010, published 2016).
One block for each substance: values may come before it.

How the values were obtained:
[1] = Vitamin B12 absorption after dosing Sprague-Dawley rats (plasma vitamin B12 by RIA); type: in vivo; conditions: for AUC / Cmax / Tmax: male Sprague-Dawley rats, mean, N = 5
Protocol: (1) 8.8 mg of vitamin B12, 35 mg of SNAC were weighed, thoroughly mixed and made into a tablet for dosing in rats; (2) 8.8 mg of vitamin B12, 35 mg of SNAC and 5 mg of capmul PG-8 (propylene glycol monocaprylate) were weighed, thoroughly mixed and made into a tablet; (3) 8.8 mg of vitamin B12, 35 mg of SNAC and 0.9 mg of povidone were weighed, thoroughly mixed and made into a tablet. Each of the […] processes was repeated to produce more tablets.
Male Sprague-Dawley rats (325-350 g) were dosed with vitamin B12 intravenously (0.5 mg/kg) alone, or orally with the tablets made in Example 4 at a dose of 50 mg/kg, vitamin B12 alone or in combination with SNAC at 200 mg/kg. Blood samples were collected at 0, 3, 10, 20, 30, 60, 120, 240 and 360 minutes post dosing. Plasma samples were analyzed for vitamin B12 by RIA. The model independent pharmacokinetic (PK) metrics obtained following administration of the vitamin B12/SNAC combination were compared to those obtained following administration of vitamin B12 alone.

[2] = Open label randomized study: serum cobalamin (B12) levels in subjects with mild vitamin B12 deficiency; type: in vivo, human; conditions: for Cobalamin Responder (%): number of subjects (%) with cobalamin >=350 pg/mL; for Cobalamin Responder (%) / Cobalamin Non-responder (%): ITT; for Cobalamin Non-responder (%): number of subjects (%); for mean (SD) percent change in cobalamin levels: serum
Protocol: In this study, the efficacy and safety of the oral vitamin B12 formulation (1 mg) of the present invention and intramuscular (IM) cyanocobalamin (1 mg) were evaluated in subjects with mild vitamin B12 deficiency.
(§1) This was an open-label, randomized 60-day study, with a 30-day extension, conducted in B12 deficient subjects. Subjects were assigned to a treatment according to a randomization schedule prepared by a statistician at the start of the study. The randomization scheme was stratified such that a balanced number of males and females were assigned to each treatment group. Subjects were randomized to receive either a 1000 μg oral tablet, administered once daily for 90 days or 1000 μg cyanocobalamin, administered IM on Days 1, 3, 7, 10, 14, 21, 30, 60 and 90.
(§2) A single tablet was self-administered in the fasted state and at least one hour prior to the morning meal with 50 mL water. IM study drug administration was performed by study personnel, in the research clinic, in the morning, in the fasted state and at least 1 hour prior to the morning meal on study Days 1, 3, 7, 10, 14, 21, 30, 60 and 90. For subjects assigned to receive tablets, treatment compliance was based on subject diary entries. Blood samples for pharmacodynamic assessments (efficacy variables) were collected from all subjects at baseline prior to dosing (Day 1), and on Days 15, 31, 61 and 91. Sample collection was carried out approximately 24 hours after the last dose administration, prior to that day's dose administration, and in the fasting state.
(§3) Serum cobalamin (B12) levels were determined by a validated microparticle enzyme immunoassay (MEIA) detection method with a calibration range of 100-2000 pg/mL. Sample dilution procedures were validated up to 4-fold dilution. Serum MMA levels were determined by a validated LC/MS/MS method with a calibration range of 5-200 ng/mL. Plasma HC levels were determined by a validated fluorescence polarization immunoassay (FIPA) detection method with a calibration range of 2.5-50 μmol/L; and plasma holotranscobalamin (active B12) levels were determined using a validated MEIA method, with a calibration range of 8-128 pmol/L. Sample dilution procedures were validated up to 32-fold dilution.
(§4) The primary efficacy variable was serum cobalamin levels on Day 61. The primary efficacy outcome compared the proportion of subjects in each treatment group whose cobalamin levels were normalized (≧350 pg/mL) on Day 61. The secondary efficacy variables were serum cobalamin levels on Day 91, serum MMA levels on Day 61 and Day 91 and, plasma total HC levels on Day 61 and Day 91.
(§5) The secondary efficacy outcomes were: comparison of the proportion of subjects in each treatment group whose cobalamin levels were normalized (≧350 pg/mL) on Day 91; comparison of the mean percent change from baseline in serum cobalamin levels among subjects in each treatment group on Day 61 and Day 91; comparison of the mean percent change from baseline in serum MMA levels among subjects in each treatment group on Day 61 and Day 91; comparison of the mean percent change from baseline in total plasma HC among subjects in each treatment group on Day 61 and Day 91; comparison of the mean first time to normalization of serum cobalamin (≧350 pg/mL) among subjects in each treatment group on Day 61 and Day 91. Exploratory efficacy variables and outcomes were: plasma holotranscobalamin levels on Day 61 and Day 91, measured by: comparison of the proportion of subjects in each treatment group whose holotranscobalamin levels were normalized (≧40 pmol/L) on Day 61 and Day 91; the relationship between cobalamin and holotranscobalamin levels on Day 61 and Day 91.
The analysis of the primary efficacy outcome compared the proportion of subjects in each treatment group whose cobalamin levels were normalized (i.e., cobalamin ≧350 pg/mL) on Day 61 Visit. The number and frequency of normalized subjects was calculated. […]

[3] = Open label randomized study: plasma holotranscobalamin (active B12) levels; type: in vivo, human; conditions: for Holotranscobalamin Responder (%): number of subjects (%) with holotranscobalamin >=40 pmol/L; for Holotranscobalamin Responder (%) / Holotranscobalamin Non-responder (%): ITT; for Holotranscobalamin Non-responder (%): number of subjects (%)
Protocol: as §1, §2, §3, §5
The proportion of subjects who achieved normalization of holotranscobalamin levels (≧40 pmol/L) at Day 61 and Day 91 were analyzed using the same methodology as given for the primary analysis. The relationship between cobalamin and holotranscobalamin levels at Day 61 and Day 91, and the PCFB to Day 61 and Day 91 were explored. The relationship was analyzed graphically.

homocysteine (HC) = assay: Open label randomized study: plasma HC levels; type: in vivo, human; conditions: for mean (SD) percent change in HC levels: plasma
Protocol: as §1, §2, §3, §4, §5
(§6) Change from baseline (CFB) is defined as (X−B). Percent change from baseline (PCFB) is defined as PCFB=100(X−B)/B, where B is the baseline (pre-dose Day 1) measurement and X is the measurement at Day 61 or Day 91, as required.
(§7) The proportion of subjects who achieved normalization of cobalamin levels (i.e., cobalamin ≧350 pg/mL) at Day 91 was to be analyzed using the same methodology as given above for the primary analysis (i.e., Day 61). […]

[4] = Open label randomized study: safety assessments (adverse events); type: in vivo, human; conditions: 90-day study
Protocol: Safety assessments consisted of monitoring adverse events (AEs), hematology, chemistry and urinalysis laboratory test results, concomitant medications, vital sign assessments, ECG and physical examination findings.
A resting 12-lead ECG was recorded at screening and at the End-of-Study visit prior to discharge from the study. The ECG parameters recorded included ventricular rate (bpm), PR interval (msec), QRS duration (msec), QT interval (msec), QTc interval (msec, Bazett's correction). A physical examination was performed at screening and at the End-of-Study visit prior to discharge from the study.
The safety population included all randomized subjects who received at least one administration of study product and who had at least one subsequent safety assessment. Subjects are included in this group based on the actual treatment received. All safety analyses were performed on the safety population.

methylmalonic acid (MMA) = assay: Open label randomized study: serum MMA levels; type: in vivo, human; conditions: for mean (SD) percent change in MMA levels: serum
Protocol: as §1, §2, §3, §4, §5, §6, §7

[5] = cited from earlier work
[6] = 50 mg/kg vitamin B12 PO (tablet)
[7] = Day 1 (baseline prior to dosing)

AUC ([1]; 0.5 mg/kg IV): 65.84 µg·min/mL | Cmax ([1]; 0.5 mg/kg IV): 2.15 µg/mL | Tmax ([1]; 0.5 mg/kg IV): 4.4 min | AUC [1, 6]: 28.72 µg·min/mL | Cmax [1, 6]: 0.14 µg/mL | Tmax [1, 6]: 52 min | Mean Bioavailability ([1]; 50 mg/kg vitamin B12 PO versus 0.5 mg/kg IV, rats): 0.42%
Substance: Vitamin B12

Substance: cyanocobalamin [IM B12]
Total B12, Mean [2, 7]: 369 pg/mL | Total B12, Mean ([2]; Day 15): 2434 pg/mL | Cobalamin Responder (%) ([2]; Day 15): 26 (100.0) % | Cobalamin Non-responder (%) ([2]; Day 15): 0 (0.0) % | Total B12, Mean ([2]; Day 61): 2258 pg/mL | mean (SD) percent change in cobalamin levels ([2]; Day 61, change from baseline): 714.6 (732.11) percent | Cobalamin Responder (%) ([2]; Day 61): 26 (100.0) % | Cobalamin Non-responder (%) ([2]; Day 61): 0 (0.0) % | Total B12, Mean ([2]; Day 91): 2057 ± 935 pg/mL | mean (SD) percent change in cobalamin levels ([2]; Day 91, change from baseline): 608.9 (446.68) percent | Total B12, Mean ([2]; Day 91, listed as IM Treatment Group): 2057 pg/mL | Cobalamin Responder (%) ([2]; Day 91): 26 (100.0) % | Cobalamin Non-responder (%) ([2]; Day 91): 0 (0.0) % | HTC, Mean [3, 7]: 34.32 pmol/L | HTC, Mean ([3]; Day 15): 899 pmol/L | Holotranscobalamin Responder (%) ([3]; Day 15): 26 (100.0) % | Holotranscobalamin Non-responder (%) ([3]; Day 15): 0 (0.0) % | HTC, Mean ([3]; Day 61): 739 pmol/L | Holotranscobalamin Responder (%) ([3]; Day 61): 26 (100.0) % | Holotranscobalamin Non-responder (%) ([3]; Day 61): 0 (0.0) % | HTC, Mean ([3]; Day 91): 877 pmol/L | Holotranscobalamin Responder (%) ([3]; Day 91): 26 (100.0) % | Holotranscobalamin Non-responder (%) ([3]; Day 91): 0 (0.0) % | Homocysteine, Mean (homocysteine (HC); [7]): 13 µmol/L | Homocysteine, Mean (homocysteine (HC); Day 15): 10 µmol/L | Homocysteine, Mean (homocysteine (HC); Day 61): 11 µmol/L | mean (SD) percent change in HC levels (homocysteine (HC); Day 61, change from baseline): −17.49 (24.099) percent | Homocysteine, Mean (homocysteine (HC); Day 91): 12 µmol/L | mean (SD) percent change in HC levels (homocysteine (HC); Day 91, change from baseline): −8.805 (28.5406) percent | subjects reported at least one AE [4]: 57.7% | subjects reported serious adverse events (SAEs) [4]: 11.5% | Subjects who discontinued because of an AE ([4]; safety population): 0 (0)^ n (%) | Subjects with AEs ([4]; safety population): 15 (57.7) n (%) | Subjects with SAEs ([4]; safety population): 3 (11.5) n (%) | Subjects with TEAEs ([4]; safety population): 15 (57.7) n (%) | MMA, Mean (methylmalonic acid (MMA); [7]): 232 nmol/L | MMA, Mean (methylmalonic acid (MMA); Day 15): 128 nmol/L | MMA, Mean (methylmalonic acid (MMA); Day 61): 148 nmol/L | mean (SD) percent change in MMA levels (methylmalonic acid (MMA); Day 61, change from baseline): −28.17 (24.754) percent | MMA, Mean (methylmalonic acid (MMA); Day 91): 149 nmol/L | mean (SD) percent change in MMA levels (methylmalonic acid (MMA); Day 91, change from baseline): −26.58 (25.643) percent

Substance: cyanocobalamin [Oral cyanocobalamin]
B12 levels increased by a mean value ([5]; 1000 μg/day oral, 1 week, in 17 of 20 elderly patients (Kaltenbach et al.)): 0.23 µg/L | patients normalized (serum B12 levels) ([5]; 2.5 year study (Andres et al.)): 95% | patients achieved normal serum B12 levels ([5]; 3 month studies (Andres et al.)): 80-90% | patients with clinical improvements ([5]; Andres et al.): 20-30%
